According to PubChem BioAssay (NCI):
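Following 48 hours of exposure in 96-well plates, responses at five concentrations were used to interpolate endpoints linearly. The concentration for 50% growth inhibition is given as GI50. TGI marks complete inhibition of growth.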 Where a SMILES comes first, the peptide text is derived from it. The star is where a group is joined. Boc = CC(C)(C)OC(=O)*; OBn = c1ccc(CO*)cc1; Bn = c1ccc(C*)cc1

Legend:
Test in all cases: NCI-60 cell line screen, 48 h
UACC-62 melanoma = system: UACC-62 melanoma
OVCAR-4 ovarian = system: OVCAR-4 ovarian
M14 melanoma = system: M14 melanoma
HCT-15 colon = system: HCT-15 colon
PC-3 prostate = system: PC-3 prostate
KM12 colon = system: KM12 colon
MOLT-4 leukemia = system: MOLT-4 leukemia
NCI-H460 lung = system: NCI-H460 lung
NCI-H226 lung = system: NCI-H226 lung
MDA-MB-231 breast = system: MDA-MB-231 breast

Compound | TGI (UACC-62 melanoma) [µM] | TGI (OVCAR-4 ovarian) [µM] | TGI (M14 melanoma) [µM] | TGI (HCT-15 colon) [µM] | TGI (PC-3 prostate) [µM] | TGI (KM12 colon) [µM] | TGI (MOLT-4 leukemia) [µM] | TGI (NCI-H460 lung) [µM] | TGI (NCI-H226 lung) [µM] | TGI (MDA-MB-231 breast) [µM] | GI50 (UACC-62 melanoma) [µM] | GI50 (OVCAR-4 ovarian) [µM] | GI50 (M14 melanoma) [µM] | GI50 (PC-3 prostate) [µM] | GI50 (KM12 colon) [µM] | GI50 (MOLT-4 leukemia) [µM] | GI50 (NCI-H460 lung) [µM] | GI50 (NCI-H226 lung) [µM] | GI50 (MDA-MB-231 breast) [µM]
O=C(O)CC(Cc1ccccc1)C(=O)O (centres undefined) | > 100 | > 100 | > 100 | > 100 | > 100 | > 100 | > 100 | > 100 | > 100 | – | – | – | – | – | – | – | – | – | –
CCCc1c(OC)c(O)c2c(=O)cc(OC)c3c4c(OC)cc(=O)c5c(O)c(OC)c(CCC)c(c1c23)c54 | 59.9 | 32.7 | 20.4 | 22.9 | 11.9 | 53.7 | 5.69 | 18.1 | 14.8 | 8.54 | – | – | – | – | – | – | – | – | –
C(=C/c1ccc2nc(-c3ccc(/C=C/C=N/NC4=NCCCN4)cc3)cn2c1)/C=N/NC1=NCCCN1 | > 100 | > 100 | > 100 | > 100 | 67.4 | > 100 | > 100 | 73.2 | 32.6 | 28.5 | – | – | – | – | – | – | – | – | –
C=C1CN(C(=O)c2cc3cc(OC)c(OC)c(OC)c3[nH]2)c2cc([N+](=O)[O-])ccc21 | > 100 | > 100 | > 100 | > 100 | > 100 | > 100 | > 100 | > 100 | > 100 | 88.5 | – | – | – | – | – | – | – | – | –
CN(CCN(C)Cc1ccc(Cl)c(Cl)c1)CCN1CCCC1 | 7.47 | > 100 | > 54.4 | > 100 | > 100 | > 100 | > 72.4 | > 100 | 94.9 | > 96.1 | – | – | – | – | – | – | – | – | –
c1ccc(C[P+]2(c3ccccc3)CCCCC2)cc1 | > 100 | > 100 | > 100 | > 100 | – | > 100 | > 100 | > 100 | > 100 | – | – | – | – | – | – | – | – | – | –
O=C1OS2(OC(=O)c3cccc4cccc2c34)c2ccccc21 (centres undefined) | – | > 100 | > 100 | > 100 | > 100 | > 100 | > 100 | – | > 100 | > 100 | – | – | – | – | – | – | – | – | –
C=CCn1c(-c2ccc(N=NNc3ccc(-c4n[nH]c(=S)n4CC=C)cc3)cc2)n[nH]c1=S | – | 6.35 | > 100 | > 100 | > 100 | – | – | – | 6.13 | > 100 | – | – | – | – | – | – | – | – | –
O=c1[nH]c(=O)n(COCCO)cc1-c1ccccc1 | > 100 | > 100 | > 100 | > 100 | > 100 | > 100 | > 100 | > 100 | – | > 100 | – | – | – | – | – | – | – | – | –
O=C1CCCn2c3ccccc3c3ccnc1c32 | 98 | > 100 | – | > 100 | – | > 100 | > 100 | > 100 | 56.4 | – | – | – | – | – | – | – | – | – | –
C=CCCCN1C(=O)C2C3c4ccccc4C(C=O)(c4ccccc43)C2C1=O (centres undefined) | 36.6 | 29.1 | – | 21.5 | 26.3 | 21.6 | 19.4 | 30.3 | – | 23.5 | – | – | – | – | – | – | – | – | –
CSCC[C@@H](NC(=O)[C@H](CC(C)C)NC(=O)C(Cc1cnc[nH]1)NC(=O)CNC(=O)[C@@H](NC(=O)[C@H](C)NC(=O)[C@H](Cc1cn(C=O)c2ccccc12)NC(=O)[C@H](CCC(N)=O)NC(=O)[C@@H](N)CC(N)=O)C(C)C)C(N)=O (some centres undefined) | > 100 | > 100 | – | > 100 | – | > 100 | > 100 | > 100 | > 100 | – | – | – | – | – | – | – | – | – | –
N#CCCN(CCN(CCN(C(=O)Nc1ccccc1)c1ccccc1)C(=O)Nc1ccccc1)C(=O)Nc1ccccc1 | > 100 | > 100 | > 100 | > 100 | > 100 | > 100 | > 100 | – | > 100 | > 100 | – | – | – | – | – | – | – | – | –
O=C1NC(N2CCOCC2)=N/C1=C\c1ccccc1 | > 100 | > 100 | > 100 | > 100 | > 100 | > 100 | > 100 | – | > 100 | > 100 | – | – | – | – | – | – | – | – | –
O=C(/C=C/c1ccco1)c1ccc(Nc2ccnc3cc(Cl)ccc23)cc1 | > 100 | > 100 | > 100 | – | 41.3 | > 100 | > 100 | > 100 | > 100 | 34.7 | > 100 | 39.9 | 70.7 | 4.99 | 3.17 | 3.18 | 2.13 | > 100 | 12.8
O=C(/C=C/c1ccccc1O)CC(=O)/C=C/c1ccccc1O | 7.58 | > 88.1 | > 31.6 | 19.9 | – | – | > 31.6 | 30.7 | – | – | – | – | – | – | – | – | – | – | –
Nc1c(Cl)ncnc1NCC1(CO)CCC1 | – | > 100 | – | > 100 | > 100 | > 100 | > 100 | > 100 | > 100 | > 100 | – | – | – | – | – | – | – | – | –
CC(C)OCC(O)COc1cc(=O)oc2ccccc12 (centres undefined) | > 100 | > 100 | > 100 | > 100 | > 100 | > 100 | > 100 | > 100 | – | > 100 | – | – | – | – | – | – | – | – | –
CC1(C)OC2C(CO)OC(/N=C(\NC#N)Oc3ccccc3)C2O1 (centres undefined) | > 100 | > 100 | > 100 | > 100 | – | > 100 | > 100 | > 100 | > 100 | – | – | – | – | – | – | – | – | – | –
COC(=O)c1ccc2c(c1)CC1(C2)Cc2ccc3c(c2C1)CCC3 (centres undefined) | 40.6 | > 100 | 13 | > 100 | 51.9 | 40.9 | 37.4 | – | > 100 | 22.1 | – | – | – | – | – | – | – | – | –
CC(C)CC(NC(=O)C(CCC(=O)OCc1ccccc1)NC(=O)OC(C)(C)C)C(=O)NC(COCc1ccccc1)C(=O)NC(Cc1ccccc1)C(=O)O (centres undefined) (Boc-E(OBn)LS(Bn)F-OH; configuration not given here) | > 100 | – | > 100 | > 100 | > 100 | > 100 | > 100 | > 100 | > 100 | > 100 | – | – | – | – | – | – | – | – | –
COC12OC3(C4OC41)C(C(=O)O[C@H]3CO[Si](C)(C)C(C)(C)C)C2S(=O)(=O)c1ccccc1 (some centres undefined) | > 7.52 | – | – | > 100 | > 90.2 | – | 3.53 | > 100 | > 100 | > 7.32 | – | – | – | – | – | – | – | – | –
